These are literature values, as cited in patent US20240141060A1, “DOSAGE REGIMES FOR ANTI-CD73 AND ANTI-ENTPD2 ANTIBODIES AND USES THEREOF” (NOVARTIS AG, priority 2021, published 2024).

For this data set the following is noted: patients; cited from earlier work.

As for `Nc1nc(-n2cccn2)nc(-n2cccn2)c1Br` [NIR178, 5-bromo-2,6-di-(1H-pyrazol-1-yl)pyrimidine-4-amine, reference compound], the MTD is on record as 480 mg BID.
